biological target: T1, human FXR (Homo sapiens, UniProt Q96RI1); assay: transient human FXR/Gal4-luciferase reporter assay; type: cell-based; details: Gal4-hFXR fusion construct, luciferase reporter in HEK293 cells; overnight incubation; response as percentage of 8 μM GW-4064 control
T1 construct: expressed in transfected cells; host or cells: HEK293 cells stably carrying a 5xGal4 response element-luciferase reporter, transiently transfected with pcDNA3.1-Gal4-FXR
T1 sequence (Q96RI1 262-486 limits assumed): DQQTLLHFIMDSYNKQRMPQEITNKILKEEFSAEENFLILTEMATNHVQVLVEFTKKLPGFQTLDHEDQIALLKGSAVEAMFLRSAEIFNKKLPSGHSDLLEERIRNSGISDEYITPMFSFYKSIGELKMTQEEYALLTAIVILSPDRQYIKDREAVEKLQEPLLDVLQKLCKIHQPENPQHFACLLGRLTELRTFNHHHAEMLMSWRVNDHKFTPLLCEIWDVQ
Outline: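 HEK293 cells stably carrying a 5×Gal4-response-element firefly luciferase reporter were transiently transfected with a Gal4 DBD-human FXR LBD fusion, then treated overnight with compounds at 37 °C. Steady-Glo luminescence, minus DMSO background, was expressed as percent of the response to 8 μM GW-4064.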

Row | EC50 [nM] | SMILES
1 | 391 | CC(F)(F)c1nc(C23CCC(CN(C(=O)N[C@H]4CC[C@](C)(O)CC4)c4cccc(C#N)c4)(CC2)CC3)no1 [Example 99, 1-(3-cyanophenyl)-1-((4-(5-(1,1-difluoroethyl)-1,2,4-oxadiazol-3-yl)bicyclo[2.2.2]octan-1-yl)methyl)-3-((1R,4R)-4-hydroxy-4-methylcyclohexyl)urea]
2 | 1480 | CC(C)(CO)CNC(=O)N(CC12CCC(c3noc(C(C)(F)F)n3)(CC1)CC2)c1cccc(C#N)c1 [Example 100, 1-(3-cyanophenyl)-1-((4-(5-(1,1-difluoroethyl)-1,2,4-oxadiazol-3-yl)bicyclo[2.2.2]octan-1-yl)methyl)-3-(3-hydroxy-2,2-dimethylpropyl)urea]
3 | 1520 | CC(C)(F)c1nc(C23CCC(CN(C(=O)N[C@H]4CC[C@H](O)CC4)c4ccc(F)c(Br)c4)(CC2)CC3)no1 [Example 101, 1-(3-bromo-4-fluorophenyl)-1-((4-(5-(2-fluoropropan-2-yl)-1,2,4-oxadiazol-3-yl)bicyclo[2.2.2]octan-1-yl)methyl)-3-((1R,4R)-4-hydroxycyclohexyl)urea]
4 | 183 | CC(C)(C)c1nc(C23CCC(CN(C(=O)C45CC(F)(C4)C5)c4cccc(Nc5ncc(OC(F)F)cn5)c4)(CC2)CC3)no1 [Example 102, N-((4-(5-(tert-butyl)-1,2,4-oxadiazol-3-yl)bicyclo[2.2.2]octan-1-yl)methyl)-N-(3-((5-(difluoromethoxy)pyrimidin-2-yl)amino)phenyl)-3-fluorobicyclo[1.1.1]pentane-1-carboxamide]
5 | 187 | CC(C)(C)c1nc(C23CCC(CN(C(=O)C45CC(F)(C4)C5)c4cccc(Nc5cnc(C6CC6)nc5)c4)(CC2)CC3)no1 [Example 103, N-((4-(5-(tert-butyl)-1,2,4-oxadiazol-3-yl)bicyclo[2.2.2]octan-1-yl)methyl)-N-(3-((2-cyclopropylpyrimidin-5-yl)amino)phenyl)-3-fluorobicyclo[1.1.1]pentane-1-carboxamide]
6 | 221 | CC(C)(C)c1nc(C23CCC(CN(C(=O)C45CC(F)(C4)C5)c4cccc(Nc5ccc(OC(F)F)cn5)c4)(CC2)CC3)no1 [Example 104, N-((4-(5-(tert-butyl)-1,2,4-oxadiazol-3-yl)bicyclo[2.2.2]octan-1-yl)methyl)-N-(3-((5-(difluoromethoxy)pyridin-2-yl)amino)phenyl)-3-fluorobicyclo[1.1.1]pentane-1-carboxamide]
7 | 292 | O=C(N(CC12CCC(c3ccc(C(F)(F)F)cn3)(CC1)CC2)c1cccc(Nc2ncc(C3CC3)cn2)c1)C12CC(F)(C1)C2 [Example 105, N-(3-((5-cyclopropylpyrimidin-2-yl)amino)phenyl)-3-fluoro-N-((4-(5-(trifluoromethyl)pyridin-2-yl)bicyclo[2.2.2]octan-1-yl)methyl)bicyclo[1.1.1]pentane-1-carboxamide]
8 | 132 | O=C(N(CC12CCC(c3ccc(C(F)(F)F)cn3)(CC1)CC2)c1cccc(Nc2ncc(OC(F)F)cn2)c1)C12CC(F)(C1)C2 [Example 106, N-(3-((5-(difluoromethoxy)pyrimidin-2-yl)amino)phenyl)-3-fluoro-N-((4-(5-(trifluoromethyl)pyridin-2-yl)bicyclo[.2.2.2]octan-1-yl)methyl)bicyclo[1.1.1]pentane-1-carboxamide]
9 | 484 | O=C(N(CC12CCC(c3ccc(C(F)(F)F)cn3)(CC1)CC2)c1cccc(Nc2ccc(OC(F)F)cc2)c1)C12CC(F)(C1)C2 [Example 107, N-(3-((4-(difluoromethoxy)phenyl)amino)phenyl)-3-fluoro-N-((4-(5-(trifluoromethyl)pyridin-2-yl)bicyclo[2.2.2]octan-1-yl)methyl)bicyclo[1.1.1]pentane-1-carboxamide]
10 | 629 | O=C(N(CC12CCC(c3ccc(C(F)(F)F)cn3)(CC1)CC2)c1cccc(Nc2ccc(OC(F)F)cn2)c1)C12CC(F)(C1)C2 [Example 108, N-(3-((5-(difluoromethoxy)pyridin-2-yl)amino)phenyl)-3-fluoro-N-((4-(5-(trifluoromethyl)pyridin-2-yl)bicyclo[2.2.2]octan-1-yl)methyl)bicyclo[1.1.1]pentane-1-carboxamide]
11 | 292 | O=C(N(CC12CCC(c3ccc(C(F)(F)F)cn3)(CC1)CC2)c1cccc(Nc2ccc(C3CC3)cn2)c1)C12CC(F)(C1)C2 [Example 109, N-(3-((5-cyclopropylpyridin-2-yl)amino)phenyl)-3-fluoro-N-((4-(5-(trifluoromethyl)pyridin-2-yl)bicyclo[2..2.2]octan-1-yl)methyl)bicyclo[1.1.1]pentane-1-carboxamide]
12 | 65 | CC(C)(C)c1nc(C23CCC(CN(C(=O)C45CC(F)(C4)C5)c4cccc(O)c4)(CC2)CC3)no1 [Example 110, N-((4-(5-(tert-butyl)-1,2,4-oxadiazol-3-yl)bicyclo[2.2.2]octan-1-yl)methyl)-3-fluoro-N-(3-hydroxyphenyl)bicyclo[1.1.1]pentane-1-carboxamide]
13 | 618 | CC(C)(C)c1nc(C23CCC(CN(C(=O)C45CC(F)(C4)C5)c4cccc(OCC#N)c4)(CC2)CC3)no1 [Example 111, N-((4-(5-(tert-butyl)-1,2,4-oxadiazol-3-yl)bicyclo[2.2.2]octan-1-yl)methyl)-N-(3-(cyanomethoxy)phenyl)-3-fluorobicyclo[1.1.1]pentane-1-carboxamide]
14 | 63 | CC(C)(O)COc1cccc(N(CC23CCC(c4noc(C(C)(C)C)n4)(CC2)CC3)C(=O)C23CC(F)(C2)C3)c1 [Example 112, N-((4-(5-(tert-butyl)-1,2,4-oxadiazol-3-yl)bicyclo[2.2.2]octan-1-yl)methyl)-3-fluoro-N-(3-(2-hydroxy-2-methylpropoxy)phenyl)bicyclo[1.1.1]pentane-1-carboxamide]
15 | 2000 | CC(C)(Oc1cccc(N(CC23CCC(c4noc(C(C)(C)C)n4)(CC2)CC3)C(=O)C23CC(F)(C2)C3)c1)C(=O)O [Example 113, 2-(3-(N-((4-(5-(tert-butyl)-1,2,4-oxadiazol-3-yl)bicyclo[2.2.2]octan-1-yl)methyl)-3-fluorobicyclo[1.1.1]pentane-1-carboxamido)phenoxy)-2-methylpropanoic acid]
16 | 80 | N#Cc1cccc(N(CC23CCC(c4noc(C(F)(F)F)n4)(CC2)CC3)C(=O)C23CC(F)(C2)C3)c1 [Example 114, N-(3-cyanophenyl)-3-fluoro-N-((4-(5-(trifluoromethyl)-1,2,4-oxadiazol-3-yl)bicyclo[2.2.2]octan-1-yl)methyl)bicyclo[1.1.1]pentane-1-carboxamide]
17 | 436 | N#Cc1cccc(N(CC23CCC(c4noc(C(F)(F)F)n4)(CC2)CC3)C(=O)[C@H]2C[C@](O)(C(F)(F)F)C2)c1 [Example 115, (1S,3S)-N-(3-cyanophenyl)-3-hydroxy-3-(trifluoromethyl)-N-((4-(5-(trifluoromethyl)-1,2,4-oxadiazol-3-yl)bicyclo[2.2.2]octan-1-yl)methyl)cyclobutane-1-carboxamide]
18 | 518 | N#Cc1cccc(N(CC23CCC(c4noc(C(F)(F)F)n4)(CC2)CC3)C(=O)C2CCOCC2)c1 [Example 116, N-(3-cyanophenyl)-N-((4-(5-(trifluoromethyl)-1,2,4-oxadiazol-3-yl)bicyclo[2.2.2]octan-1-yl)methyl)tetrahydro-2H-pyran-4-carboxamide]
19 | 1350 | C[C@]1(O)C[C@@H](C(=O)N(CC23CCC(c4noc(C(F)(F)F)n4)(CC2)CC3)c2cccc(C#N)c2)C1 [Example 117, (1S,3S)-N-(3-cyanophenyl)-3-hydroxy-3-methyl-N-((4-(5-(trifluoromethyl)-1,2,4-oxadiazol-3-yl)bicyclo[2.2.2]octan-1-yl)methyl)cyclobutane-1-carboxamide]
20 | 361 | CC(C)(C)c1nc(C23CCC(CN(C(=O)C45CC(F)(C4)C5)c4cccc(Oc5ncc(OC(F)F)cn5)c4)(CC2)CC3)no1 [Example 118, N-((4-(5-(tert-butyl)-1,2,4-oxadiazol-3-yl)bicyclo[2.2.2]octan-1-yl)methyl)-N-(3-((5-(difluoromethoxy)pyrimidin-2-yl)oxy)phenyl)-3-fluorobicyclo[1.1.1]pentane-1-carboxamide]
21 | 536 | CC(C)(C)c1nc(C23CCC(CN(C(=O)C45CC(F)(C4)C5)c4cccc(Oc5ccc(OC(F)F)cn5)c4)(CC2)CC3)no1 [Example 119, N-((4-(5-(tert-butyl)-1,2,4-oxadiazol-3-yl)bicyclo[2.2.2]octan-1-yl)methyl)-N-(3-((5-(difluoromethoxy)pyridin-2-yl)oxy)phenyl)-3-fluorobicyclo[1.1.1]pentane-1-carboxamide]
22 | 4000 | CC(F)(F)c1nc(C23CCC(CN(C(=O)C45CC(F)(C4)C5)c4cccc(C(=O)O)c4)(CC2)CC3)no1 [Example 120, 3-(N-((4-(5-(1,1-difluoroethyl)-1,2,4-oxadiazol-3-yl)bicyclo[2.2.2]octan-1-yl)methyl)-3-fluorobicyclo[1.1.1]pentane-1-carboxamido)benzoic acid]
23 | 412 | CC(C)(C)c1noc(C23CCC(CN(C(=O)C45CC(F)(C4)C5)c4ccc(F)c(C(N)=O)c4)(CC2)CC3)n1 [Example 121, N-((4-(3-(tert-butyl)-1,2,4-oxadiazol-5-yl)bicyclo[2.2.2]octan-1-yl)methyl)-N-(3-carbamoyl-4-fluorophenyl)-3-fluorobicyclo[1.1.1]pentane-1-carboxamide]
